# Measurements taken from patent publication US20230339890A1, “AMINO ALCOHOL COMPOUNDS AND USES THEREOF” (Kineta, Inc., priority 2020, published 2023).
# pIC50: −log10 of the molar value.
# Biological target: Recombinant human CYP51A1 (lanosterol-14a-demethylase) (Homo sapiens (Human), UniProt Q16850)
# Test: Inhibition of CYP51A1, fluorescent substrate BOMCC
# Type: biochemical
# Conditions: recombinant human CYP51A1 coexpressed with CYP reductase in bacterial membranes, 8-point concentration-response, read-out: CYP51 IC50
# From the text: Method: Recombinant human CYP51A1 (lanosterol-14a-demethylase) enzyme was coexpressed with CYP reductase in bacterial membranes and the fluorescent substrate BOMCC (a nonnatural substrate that causes increases in fluorescence upon CYP51A1-dependent demethylation) was used to obtain 8-point dose concentration-response curves for each compound.
# Sequence of Recombinant human CYP51A1 (lanosterol-14a-demethylase) (Q16850 whole entry): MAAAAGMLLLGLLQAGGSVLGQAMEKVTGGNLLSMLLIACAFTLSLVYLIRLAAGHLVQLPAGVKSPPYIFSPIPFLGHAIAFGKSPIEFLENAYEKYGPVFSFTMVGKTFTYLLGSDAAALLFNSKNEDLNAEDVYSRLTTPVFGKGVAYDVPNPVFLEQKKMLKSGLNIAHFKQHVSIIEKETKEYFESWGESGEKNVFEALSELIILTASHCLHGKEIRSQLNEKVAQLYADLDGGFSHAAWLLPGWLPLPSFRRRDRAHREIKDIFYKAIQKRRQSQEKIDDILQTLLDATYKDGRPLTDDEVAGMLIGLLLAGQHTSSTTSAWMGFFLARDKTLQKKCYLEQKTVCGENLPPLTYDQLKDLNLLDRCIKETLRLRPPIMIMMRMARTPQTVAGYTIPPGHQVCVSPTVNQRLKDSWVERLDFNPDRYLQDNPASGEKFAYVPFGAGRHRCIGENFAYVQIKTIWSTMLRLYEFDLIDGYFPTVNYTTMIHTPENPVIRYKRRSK
row,Structure (SMILES),pIC50
1,"CCCN(C[C@@H](O)c1cccnc1)C(=O)C1Cc2cc(Cl)c(Br)cc2C1 (stereo partly drawn) [compound 131, 5-bromo-6-chloro-N-[(2S)-2-hydroxy-2-(3-pyridyl)ethyl]-N-propyl-indane-2-carboxamide]",≥ 7.00
2,"CCCN(C[C@@H](O)c1cccnc1)C(=O)C(C)c1ccc(C(F)(F)F)nc1 (stereo partly drawn) [compound 132, N-[(2S)-2-hydroxy-2-(3-pyridyl)ethyl]-N-propyl-2-[6-(trifluoromethyl)-3-pyridyl]propanamide]",< 6.00
3,"CCCN(C[C@@H](O)c1cccnc1)C(=O)C1Cc2cc(C#N)c(C#N)cc2C1 [compound 133, 5,6-dicyano-N-[(2S)-2-hydroxy-2-(3-pyridyl)ethyl]-N-propyl-indane-2-carboxamide]",6.00 to 7.00
4,"CCCN(C[C@@H](O)c1cccnc1)C(=O)N1Cc2cc(Cl)c(Br)cc2C1 [compound 135, 5-bromo-6-chloro-N-[(2S)-2-hydroxy-2-(3-pyridyl)ethyl]-N-propyl-isoindoline-2-carboxamide]",≥ 7.00
5,"CC(C)(C)OC(=O)N(CCc1ccc2ccccc2c1)CC(O)c1cccnc1 (stereo not shown) [compound 137, Tert-butyl N-[2-hydroxy-2-(3-pyridyl)ethyl]-N-[2-(2-naphthyl)ethyl]carba mate]",≥ 7.00
6,"CC(C)(C)OC(=O)N(CCc1ccc(Cl)c(Cl)c1)CC(O)c1cccnc1 (stereo not shown) [compound 138, Tert-butyl N-[2-(3,4-dichlorophenyl)ethyl] -N-[2-hydroxy-2-(3-pyridyl)ethyl]carbam ate]",6.00 to 7.00
7,"CC(C)(C)OC(=O)NC1CCC(CN(C[C@@H](O)c2cccnc2)C(=O)Cc2ccc(C(F)(F)F)nc2)CC1 (stereo partly drawn) [compound 146, tert-butyl N-[4-[[[(2S)-2-hydroxy-2-(3-pyridyl)ethyl]-[2-[6-(trifluoromethyl)-3-pyridyl]acetyl]amino]methyl]cyclohexyl] carbamate]",≥ 7.00

# Next, values leading:
row,pIC50,Structure (SMILES)
1,≥ 7.00,"CCCN(C[C@@H](O)c1cccnc1)C(=O)C1Cc2cc(Cl)c(C#N)cc2C1 (stereo partly drawn) [compound 134, 5-chloro-6-cyano-N-[(2S)-2-hydroxy-2-(3-pyridyl)ethyl]-N-propyl-indane-2-carboxamide]"
2,≥ 7.00,"CCCN(CC(O)c1cnccc1N)C(=O)Cc1ccc(C(F)(F)F)nc1 (stereo not shown) [compound 136, N-[2-(4-amino-3-pyridyl)-2-hydroxyethyl]-N-propyl-2-[6-(trifluoromethyl)-3-pyridyl]acetamide]"
3,≥ 7.00,"CC(C)(C)OC(=O)NCCCCCN(CC(O)c1cccnc1)C(=O)Cc1ccc(Cl)c(Cl)c1 (stereo not shown) [compound 139, tert-butyl N-[5-[[2-(3,4-dichlorophenyl)acetyl]-[2-hydroxy-2-(3-pyridyl)ethyl]amino]pentyl]carbamate]"
4,≥ 7.00,"CC(C)(C)OC(=O)NCCCN(C[C@@H](O)c1cccnc1)C(=O)Cc1ccc(C(F)(F)F)nc1 [compound 140, tert-butyl N-[3-[[(2S)-2-hydroxy-2-(3-pyridyl)ethyl]-[2-[6-(trifluoromethyl)-3-pyridyl]acetyl]amino]propyl]carbamate]"
5,≥ 7.00,"CC(C)(C)OC(=O)NCCCCCN(C[C@@H](O)c1cccnc1)C(=O)Cc1ccc(C(F)(F)F)nc1 [compound 141, tert-butyl N-[5-[[(2S)-2-hydroxy-2-(3-pyridyl)ethyl]-[2-[6-(trifluoromethyl)-3-pyridyl]acetyl]amino]pentyl]carbamate]"
6,≥ 7.00,"CC(C)(C)OC(=O)NCCN(C[C@@H](O)c1cccnc1)C(=O)Cc1ccc(C(F)(F)F)nc1 [compound 143, tert-butyl N-[2-[[(2S)-2-hydroxy-2-(3-pyridyl)ethyl]-[2-[6-(trifluoromethyl)-3-pyridyl]acetyl]amino]ethyl]carbamate]"
7,6.00 to 7.00,"CC(C)(C)OC(=O)NC1CCC(CN(C[C@@H](O)c2cccnc2)C(=O)Cc2ccc(C(F)(F)F)nc2)CC1 (stereo partly drawn) [compound 145, tert-butyl N-[4-[[[(2S)-2-hydroxy-2-(3-pyridyl)ethyl]-[2-[6-(trifluoromethyl)-3-pyridyl]acetyl]amino]methyl]cyclohexyl] carbamate]"
8,≥ 7.00,"CCCN(C[C@H](O)c1cccnc1)C(=O)Cc1ccc2ccccc2c1 [compound 147, N-[(2R)-2-hydroxy-2-(3-pyridyl)ethyl]-2-(2-naphthyl)-N-propyl-acetamide]"

# System: Erg11
# Test: HPLC analysis of lanosterol and ergosterol in wild-type yeast cultures
# Type: cell-based
# Conditions: wild-type yeast treated for eight hours
# Method: (§1) (FIG. 1A) Structure of the Erg11 inhibitor and anti-fungal, fluconazole. […] A 2-fold serial dilution of fluconazole was applied to TDP-43-expressing yeast for 24 hours prior to analysis. (FIG. 1C) Wild-type yeast cultures were treated with fluconazole for eight hours prior to HPLC analysis for lanosterol and ergosterol. Data are expressed as the area under the curve (AUC) normalized to cell mass based on optical density of cultures at 600 nm.
# Fluconazole is an antifungal known to inhibit Erg11, the yeast lanosterol 14-alpha demethylase (FIG. 1B). […] CYP51A1 has also been known as lanosterol 14-alpha demethylase, which describes its function in removing the 14-alpha-methyl group from lanosterol to generate 4,4-dimethylcholesta-8(9), 14, 24-trien-3β-ol, which is a critical step in the cholesterol biosynthetic pathway.
Structure (SMILES),ergosterol (AUC normalized to cell mass),lanosterol (AUC normalized to cell mass)
OC(Cn1cncn1)(Cn1cncn1)c1ccc(F)cc1F [fluconazole],reduces ergosterol,"increase in the Erg11 substrate, lanosterol"

# System: TDP-43-expressing yeast
# Test: Yeast TDP-43 model viability (resazurin-reduction endpoint)
# Type: cell-based
# Conditions: 2-fold serial dilution applied for 24 hours
# Method: as §1
# The toxic gain of function features of TDP-43 can be faithfully recapitulated in the simple model organism, budding yeast, where the protein also localizes to stress granules. […] The yeast model thus provides a robust cell-based screening platform for small molecules capable of ameliorating toxicity. To validate compounds from such phenotypic screens, it is imperative to test compounds in a mammalian neuronal context. In an effort to develop TDP-43-related mammalian models of neuron loss that occurs in ALS and FTD, primary cultures of rat cortical neurons were transfected with human wild type or Q331K mutant TDP-43. These cells were compared to cells which received an empty expression vector control. […] In the experiments described in this example, this model system is used to interrogate new therapeutic approaches to ameliorate TDP-43 toxicity.
# Fluconazole is an antifungal known to inhibit Erg11, the yeast lanosterol 14-alpha demethylase (FIG. 1B). […]
row,Structure (SMILES),viability of TDP-43-expressing yeast
1,OC(Cn1cncn1)(Cn1cncn1)c1ccc(F)cc1F [fluconazole],rescues viability

# Same assay, conditions: 2-fold serial dilution applied for 24 hours, listed as Fluconazole
row,Structure (SMILES),viability of TDP-43-expressing yeast
1,OC(Cn1cncn1)(Cn1cncn1)c1ccc(F)cc1F [fluconazole],restored viability
